Values quoted from earlier work, collected in patent US8802148B2, “Microparticles and method for their production” (Alrise Biosystems GmbH, priority 2002, dated 2014).
Where a name gives a salt, the structure may show the parent alone.

Details: at 20-25° C.

Row | Structure (SMILES) | Solubility in water (w/w) [%]
1 | CCOC(C)=O [ethyl acetate] | 7.43
2 | CCOC=O [ethyl formate] | 8.4
3 | CC(=O)OC(C)C [iIsopropyl acetate, isopropyl acetate] | 3.09
4 | COC(C)=O [methyl acetate] | 22.8
5 | CCCOC(C)=O [propyl acetate] | 1.67
6 | CCCOC=O [propyl formate] | 2.82
